# Test results published in patent US20250352615A1, “COMPOSITIONS AND METHODS FOR THE MODULATION OF PIEZO1 AND TRPV4” (Duke University, priority 2021, published 2025).
# Test system: human stellate cells
# Test: Gene expression (RT-PCR) in Yoda1-treated human stellate cells
# Assay type: cell-based
# Description: Mouse and human stellate cells were prepared and maintained in culture as previously described Swain et al., JCI Insight 7: e158288 (2022). Summarized here: Mouse and human PSCs were isolated using collagenase digestion. Modified Krebs Henseleit Buffer (KHB) solution (100 mL) was prepared as described previously in Romac et al., Nat. Commun. 9(1): 1715 (2018). Pancreatic tissue was digested with 2 mg of collagenase NB 8 (SERVA, catalog 17456) dissolved in 10 mL of modified KHB solution containing 1 mg soybean trypsin inhibitor (SBTI 1-S; Millipore Sigma, catalog T9003) and 20 mg BSA (Thermo Fisher Scientific; BP1600-100). Digestion solution (5 mL) was used to inflate the pancreas. Pancreas with 5 mL of digestion solution was incubated in a shaking water bath for 10 minutes at 37° C. The solution was then discarded. The pancreas tissue was cut into small pieces and digested with fresh 5 mL digestion buffer. Tissue was incubated in a shaking water bath for 40 minutes at 37° C. The cells were then separated from tissue by pipetting up-down with a 10 mL pipette and passed sequentially through a 70 μm and a 40 μm cell strainer. The filtrate was centrifuged at 150×g for 3 minutes at room temperature. The cells were washed with 10 mL Leibovitz's media (Thermo Fisher Scientific, catalog 11415-064), passed through a 20 μm filter, and centrifuged at 80 g for 3 minutes at room temperature. The supernate was removed, and isolated stellate cells were plated on a thin-layered Matrigel-coated glass bottom culture plate (MatTek, P35G-0-14-C). Before plating the cells, Matrigel solution (Corning, catalog 354234) at a ratio of 1.5:100 DMEM/F12 (Thermo Fisher Scientific, catalog 11330-032) was poured onto the culture plate and incubated for 2 hours at 37° C. to form a thin layer of Matrigel coating. Matrigel mixture was removed, and the plate was washed with PBS before cells were plated. Cell culture media, DMEM/F12 with 5% FBS was used for mouse stellate cells. Fresh, human pancreatic tissue (provided by Duke University's BioRepository & Precision Pathology Center under IRB approval) was digested with collagenase as described above with modifications. Collagenase (2.5 mg) in 10 mL of modified KHB solution was used for digestion. The digested tissues were filtered through a 100 μm cell strainer. The cells were cultured with DMEM/F12 with 10% FBS in a Matrigel-coated plate. After 24 hours, the cell media was replaced with fresh media to remove unattached and dead cells. After 2 days, cells were immunostained for GFAP and used for experiments. Perinuclear fat droplets were stained with BODIPY 493/503 (4,4-Difluoro-1,3,5,7,8-Pentamethyl-4-Bora-3a,4a-Diaza-s-Indacene; Invitrogen, catalog D3922) to confirm stellate cell quiescence.
# Yoda 1 was resuspended in DMSO at 25 mM stock solution. […]
# [1] = Yoda1, 24 hr, human stellate cells, preliminary
smiles,measurement,setting,value
Clc1cccc(Cl)c1CSc1nnc(-c2cnccn2)s1 [Yoda1],expression of fibronectin and IL-6,"Yoda1 25 μM, 24 hr",increased expression of fibronectin and IL-6
same,ACTA2 mRNA expression,[1],decreases ACTA2
same,CD10 mRNA expression,[1],increases CD10 expression
same,TRPV4 mRNA levels,"human PSCs, 24 hr, Yoda1 5 μm and 25 μM",upregulates TRPV4 expression in PSCs
